# Laboratory results published in ChEMBL document CHEMBL6134819, “Discovery of novel tranylcypromine-indazole-based derivatives as LSD1 inhibitors for acute myeloid leukemia treatment” (Eur J Med Chem, 2025).
# What was measured:
# [1] = target: Lysine-specific histone demethylase 1A (Homo sapiens, UniProt O60341); experiment: Inhibition of human recombinant LSD1 (852 residues) incubated for 1 hr by HTRF method
# HL-60 = experiment: Antiproliferative activity against human HL-60 cells assessed as inhibition of cell growth measured after 7 days by cell-titer glo assay; format: functional, cell-based; details: HL-60, 168 h
# THP-1 = experiment: Antiproliferative activity against human THP-1 cells assessed as inhibition of cell growth measured after 7 days by cell-titer glo assay; format: functional, cell-based; details: THP-1, 168 h
# MV4-11 = experiment: Antiproliferative activity against human MV4-11 cells assessed as inhibition of cell growth measured after 7 days by cell-titer glo assay; format: functional, cell-based; details: MV4-11, 168 h
# [2] = target: Voltage-gated inwardly rectifying potassium channel KCNH2 (Homo sapiens, UniProt Q12809); experiment: Inhibition of human ERG by whole cell patch clamp assay; format: toxicity
# Voltage-gated inwardly rectifying potassium channel KCNH2, sequence (Q12809 whole entry): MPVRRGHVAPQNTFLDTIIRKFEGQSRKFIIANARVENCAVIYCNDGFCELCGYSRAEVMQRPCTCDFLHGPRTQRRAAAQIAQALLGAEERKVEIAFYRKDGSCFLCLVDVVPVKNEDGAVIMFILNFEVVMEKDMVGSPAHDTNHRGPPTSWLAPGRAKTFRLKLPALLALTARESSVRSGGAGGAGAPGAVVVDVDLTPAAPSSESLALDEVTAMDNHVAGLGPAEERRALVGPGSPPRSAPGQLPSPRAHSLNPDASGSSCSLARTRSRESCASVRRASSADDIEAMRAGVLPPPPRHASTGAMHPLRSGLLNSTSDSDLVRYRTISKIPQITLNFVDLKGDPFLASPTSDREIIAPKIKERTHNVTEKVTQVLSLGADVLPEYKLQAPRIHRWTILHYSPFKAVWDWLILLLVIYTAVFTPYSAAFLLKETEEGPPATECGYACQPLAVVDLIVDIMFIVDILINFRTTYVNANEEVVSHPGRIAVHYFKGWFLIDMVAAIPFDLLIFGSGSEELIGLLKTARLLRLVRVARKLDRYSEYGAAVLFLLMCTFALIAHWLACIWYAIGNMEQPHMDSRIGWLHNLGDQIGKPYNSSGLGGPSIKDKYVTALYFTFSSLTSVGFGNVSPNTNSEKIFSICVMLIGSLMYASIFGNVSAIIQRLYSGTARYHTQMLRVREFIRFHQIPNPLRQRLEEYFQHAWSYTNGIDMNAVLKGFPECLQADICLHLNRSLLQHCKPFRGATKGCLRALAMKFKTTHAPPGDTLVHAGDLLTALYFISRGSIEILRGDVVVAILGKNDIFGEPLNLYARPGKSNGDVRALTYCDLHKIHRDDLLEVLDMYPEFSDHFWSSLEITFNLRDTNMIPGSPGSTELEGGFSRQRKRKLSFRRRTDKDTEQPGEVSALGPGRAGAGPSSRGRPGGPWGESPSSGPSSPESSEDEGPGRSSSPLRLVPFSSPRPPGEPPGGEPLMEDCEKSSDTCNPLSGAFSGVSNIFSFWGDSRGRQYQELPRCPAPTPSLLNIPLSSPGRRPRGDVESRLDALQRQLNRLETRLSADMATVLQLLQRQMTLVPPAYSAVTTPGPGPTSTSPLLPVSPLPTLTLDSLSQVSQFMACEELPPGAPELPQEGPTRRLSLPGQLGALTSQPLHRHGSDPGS
SMILES,IC50 [1] [µM],IC50 (HL-60) [µM],IC50 (THP-1) [µM],IC50 (MV4-11) [µM],IC50 [2] [µM]
O=C(c1ccccc1)n1ncc2cc(-n3cc(CN[C@@H]4C[C@H]4c4ccc(F)c(F)c4)nn3)ccc21,0.00755,2.81,12.9,6.3,–
Fc1ccc([C@@H]2C[C@H]2NCc2cn(-c3cnc4[nH]ncc4c3)nn2)cc1F,0.0209,–,–,–,–
O=C(C1CCCCC1)n1ncc2cc(-n3cc(CN[C@@H]4C[C@H]4c4ccc(F)c(F)c4)nn3)ccc21,0.0159,3,5.57,9.67,–
Fc1ccc([C@@H]2C[C@H]2NCc2cn(-c3cc4cn[nH]c4cc3F)nn2)cc1F,0.00645,7.44,7.5,6.86,–
O=S(=O)(C1CCCCC1)n1ncc2cc(-n3cc(CN[C@@H]4C[C@H]4c4ccc(F)c(F)c4)nn3)ccc21,0.00482,1.88,2.41,4.33,–
O=C(C1CCC1)n1ncc2cc(-n3cc(CN[C@@H]4C[C@H]4c4ccc(F)c(F)c4)nn3)ccc21,0.0155,6.12,10.9,5.51,–
CCn1ncc2cc(-n3cc(CN[C@@H]4C[C@H]4c4ccc(F)c(F)c4)nn3)ccc21,0.0038,7.83,6.52,3.52,–
Fc1ccc([C@@H]2C[C@H]2NCc2cn(Cc3ccc4[nH]ncc4c3)nn2)cc1F,0.0115,2.47,6.34,6.56,–
CCC(=O)n1ncc2cc(-n3cc(CN[C@@H]4C[C@H]4c4ccc(F)c(F)c4)nn3)ccc21,0.0116,1.53,7.29,2.56,–
Fc1ccc([C@@H]2C[C@H]2NCc2cn(-c3ccc4c(cnn4Cc4ccccc4)c3)nn2)cc1F,0.00828,3.83,1.67,4.08,–
Fc1ccc([C@@H]2C[C@H]2NCc2cn(CCc3ccc4[nH]ncc4c3)nn2)cc1F,0.0579,–,–,–,–
Fc1ccc([C@@H]2C[C@H]2NCc2cn(-c3ccc4c(cnn4CC(F)(F)F)c3)nn2)cc1F,0.00159,1.86,5.01,10.9,–
COc1cc2[nH]ncc2cc1-n1cc(CN[C@@H]2C[C@H]2c2ccc(F)c(F)c2)nn1,0.00346,10.9,12.6,8.74,–
Cn1ncc2cc(-n3cc(CN[C@@H]4C[C@H]4c4ccc(F)c(F)c4)nn3)ccc21,0.00462,2.49,4.52,17.1,–
CC(C)C(=O)n1ncc2cc(-n3cc(CN[C@@H]4C[C@H]4c4ccc(F)c(F)c4)nn3)ccc21,0.00997,3.42,3.59,3.89,–
O=C(C1CCCC1)n1ncc2cc(-n3cc(CN[C@@H]4C[C@H]4c4ccc(F)c(F)c4)nn3)ccc21,0.012,3.44,8.37,8.25,–
Fc1ccc([C@@H]2C[C@H]2NCc2cn(-c3ccc4cn[nH]c4c3)nn2)cc1F,0.0144,> 25,3.76,> 25,–
CS(=O)(=O)n1ncc2cc(-n3cc(CN[C@@H]4C[C@H]4c4ccc(F)c(F)c4)nn3)ccc21,0.0146,2.41,24.3,3.31,–
CC(=O)n1ncc2cc(-n3cc(CN[C@@H]4C[C@H]4c4ccc(F)c(F)c4)nn3)ccc21,0.0084,4.22,5.4,3.87,–
CCS(=O)(=O)n1ncc2cc(-n3cc(CN[C@@H]4C[C@H]4c4ccc(F)c(F)c4)nn3)ccc21,0.00777,6.81,4.59,11.5,–
O=S(=O)(C1CC1)n1ncc2cc(-n3cc(CN[C@@H]4C[C@H]4c4ccc(F)c(F)c4)nn3)ccc21,0.0043,5.57,3.39,6.32,–
Fc1ccc([C@@H]2C[C@H]2NCc2cn(-c3ccc4c(cnn4C4CCCC4)c3)nn2)cc1F,0.00414,4.05,3.88,2.86,–
Cc1cc2[nH]ncc2cc1-n1cc(CN[C@@H]2C[C@H]2c2ccc(F)c(F)c2)nn1,0.0111,4.11,5.7,6.28,–
Fc1ccc([C@@H]2C[C@H]2NCc2cn(-c3cccc4[nH]ncc34)nn2)cc1F,0.00663,15.5,3.95,12.5,–
O=C(C1CC1)n1ncc2cc(-n3cc(CN[C@@H]4C[C@H]4c4ccc(F)c(F)c4)nn3)ccc21,0.0123,5.5,5.94,2.61,–
Fc1ccc([C@@H]2C[C@H]2NCc2cn(-c3n[nH]c4ccccc34)nn2)cc1F,0.0051,> 25,> 25,> 25,–
Fc1ccc([C@@H]2C[C@H]2NCc2cn(-c3ccc4[nH]ncc4c3)nn2)cc1F,–,–,–,–,0.61
O=C(Cc1ccccc1)n1ncc2cc(-n3cc(CN[C@@H]4C[C@H]4c4ccc(F)c(F)c4)nn3)ccc21,0.0156,2.83,8.32,7.84,–
